How the values were obtained:
LOLRI [1] = assay: Pre-emergence herbicidal action against LOLRI; assay type: in vivo, Lolium rigidum; details: Lolium rigidum, 504 h
In short: (§1)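 Herbicidal effect was assessed 3 weeks after treatment by visual comparison with untreated controls, 100% denoting dead plants. Aqueous WP or EC preparations had been applied at 600 to 800 l/ha with 0.2% wetting agent to the soil covering freshly sown seeds.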

AMARE [2] = assay: Pre-emergence herbicidal action against AMARE; assay type: in vivo, Amaranthus retroflexus; details: Amaranthus retroflexus, 504 h, 100% = plants have died, 0% = like control plants
In short: as §1

LOLRI [3] = assay: Post-emergence herbicidal action against LOLRI; assay type: in vivo, Lolium rigidum; details: Lolium rigidum, 504 h
In short: (§2)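 Post-emergence greenhouse test; one-leaf stage, 2–3 wk post-sowing, sandy loam. Foliar spray of WP/EC in water, 600–800 l/ha, +0.2% wetting agent. Visual % action at ~3 wk vs untreated (100% = plants dead).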

PHBPU = assay: Post-emergence herbicidal action against PHBPU; assay type: in vivo, Pharbitis purpurea; details: Ipomoea purpurea, 504 h
In short: as §2

AMARE [4] = assay: Post-emergence herbicidal action against AMARE; assay type: in vivo, Amaranthus retroflexus; details: Amaranthus retroflexus, 504 h, visual assessment about 3 weeks after treatment, 100% = plants have died, 0% = like control plants
In short: as §2

VIOTR [5] = assay: Pre-emergence herbicidal action against VIOTR; assay type: in vivo, Viola tricolor; details: Viola tricolor, 504 h
In short: as §1

VIOTR [6] = assay: Post-emergence herbicidal action against VIOTR; assay type: in vivo, Viola tricolor; details: Viola tricolor, 504 h
In short: as §2

HORMU [7] = assay: Pre-emergence herbicidal action against HORMU; assay type: in vivo, Hordeum murinum; details: Hordeum murinum, 504 h, pre-emergence
In short: as §1

ABUTH [8] = assay: Pre-emergence herbicidal action against ABUTH; assay type: in vivo, Abutilon theophrasti; details: Abutilon theophrasti, 504 h
In short: as §1

VERPE [9] = assay: Pre-emergence herbicidal action against VERPE; assay type: in vivo, Veronica persica; details: Veronica persica, 504 h
In short: as §1

ECHCG = assay: Pre-emergence herbicidal action against ECHCG; assay type: in vivo, Echinochloa crus-galli; details: Echinochloa crus-galli, 504 h
In short: as §1

POLCO [10] = assay: Post-emergence herbicidal action against POLCO; assay type: in vivo, Polygonum convolvulus; details: Fallopia convolvulus, 504 h, dosage 80 g/ha
In short: as §2

HORMU [11] = assay: Post-emergence herbicidal action against HORMU; assay type: in vivo, Hordeum murinum; details: Hordeum murinum, 504 h
In short: as §2

SETVI [12] = assay: Pre-emergence herbicidal action against SETVI; assay type: in vivo, Setaria viridis; details: Setaria viridis, 504 h
In short: as §1

MATIN = assay: Pre-emergence herbicidal action against MATIN; assay type: in vivo, Matricaria inodora; details: Tripleurospermum inodorum, 504 h
In short: as §1

STEME [13] = assay: Pre-emergence herbicidal action against STEME; assay type: in vivo, Stellaria media; details: Stellaria media, 504 h
In short: as §1

AVEFA = assay: Pre-emergence herbicidal action against AVEFA; assay type: in vivo, Avena fatua; details: Avena fatua, 504 h, pre-emergence
In short: as §1

SETVI [14] = assay: Post-emergence herbicidal action against SETVI; assay type: in vivo, Setaria viridis; details: Setaria viridis, 504 h
In short: as §2

POLCO [15] = assay: Pre-emergence herbicidal action against POLCO; assay type: in vivo, Polygonum convolvulus; details: Fallopia convolvulus, 504 h
In short: as §1

ABUTH [16] = assay: Post-emergence herbicidal action against ABUTH; assay type: in vivo, Abutilon theophrasti; details: Abutilon theophrasti, 504 h, visual assessment about 3 weeks after treatment vs untreated controls
In short: as §2

VERPE [17] = assay: Post-emergence herbicidal action against VERPE; assay type: in vivo, Veronica persica; details: Veronica persica, 504 h
In short: as §2

ALOMY = assay: Pre-emergence herbicidal action against ALOMY; assay type: in vivo, Alopecurus myosuroides; details: Alopecurus myosuroides, 504 h, pre-emergence
In short: as §1

STEME [18] = assay: Post-emergence herbicidal action against STEME; assay type: in vivo, Stellaria media; details: Stellaria media, 504 h
In short: as §2

[19] = 80 g/ha, scored visually after 3 weeks vs untreated controls (100% = plants have died, 0% = like control plants)
[20] = 20 g/ha, scored visually after 3 weeks, 100% = plants have died, 0% = like control plants
[21] = 320 g/ha, scored visually after 3 weeks, 100% = plants have died, 0% = like control plants

Compound: CNC(=O)c1c(C(F)(F)F)ccc(C(=O)Nc2nnnn2C)c1Cl [Example 1-129]
- pest or weed control at 80 g/ha (LOLRI [1]; 80 g/ha): 90%
- pest or weed control at 320 g/ha (LOLRI [1]; 320 g/ha): 100%
- pest or weed control at 20 g/ha (AMARE [2]; 20 g/ha, scored visually after 3 weeks vs untreated controls): 100%
- pest or weed control at 80 g/ha (AMARE [2]; 80 g/ha, scored visually after 3 weeks vs untreated controls): 100%
- pest or weed control at 320 g/ha (AMARE [2]; 320 g/ha, scored visually after 3 weeks): 100%
- pest or weed control at 5 g/ha (LOLRI [3]; dosage 5 g/ha): 80%
- pest or weed control at 20 g/ha (LOLRI [3]; dosage 20 g/ha): 100%
- pest or weed control at 80 g/ha (LOLRI [3]; dosage 80 g/ha): 100%
- pest or weed control at 5 g/ha (PHBPU; dosage 5 g/ha): 80%
- pest or weed control at 20 g/ha (PHBPU; dosage 20 g/ha): 100%
- pest or weed control at 80 g/ha (PHBPU; dosage 80 g/ha): 100%
- pest or weed control at 20 g/ha (AMARE [4]; 20 g/ha): 100%
- pest or weed control at 80 g/ha (AMARE [4]; 80 g/ha): 100%
- pest or weed control at 20 g/ha (VIOTR [5]; dosage 20 g/ha): 100%
- pest or weed control at 80 g/ha (VIOTR [5]; dosage 80 g/ha): 100%
- pest or weed control at 320 g/ha (VIOTR [5]; dosage 320 g/ha): 100%
- pest or weed control at 5 g/ha (VIOTR [6]; 5 g/ha): 80%
- pest or weed control at 20 g/ha (VIOTR [6]; 20 g/ha): 100%
- pest or weed control at 80 g/ha (VIOTR [6]; 80 g/ha): 100%
- pest or weed control at 80 g/ha (HORMU [7]; 80 g/ha): 90%
- pest or weed control at 320 g/ha (HORMU [7]; 320 g/ha): 100%
- pest or weed control at 80 g/ha (ABUTH [8]; [19]): 100%
- pest or weed control at 320 g/ha (ABUTH [8]; Dosage: 320 g/ha, scored visually after 3 weeks, 100% = plants have died, 0% = like control plants): 100%
- pest or weed control at 20 g/ha (ABUTH [8]; dosage 20 g/ha, scored visually after 3 weeks vs untreated controls, 100% = plants have died, 0% = like control plants, read-out: Pre-emergence action against ABUTH (herbicidal activity in percent)): 100%
- pest or weed control at 80 g/ha (VERPE [9]; dosage 80 g/ha): 100%
- pest or weed control at 320 g/ha (VERPE [9]; dosage 320 g/ha): 100%
- pest or weed control at 20 g/ha (ECHCG; 20 g/ha): 80%
- pest or weed control at 80 g/ha (ECHCG; 80 g/ha): 100%
- pest or weed control at 320 g/ha (ECHCG; 320 g/ha): 100%
- pest or weed control at 80 g/ha (POLCO [10]): 100%
- pest or weed control at 5 g/ha (HORMU [11]; dosage 5 g/ha): 90%
- pest or weed control at 20 g/ha (HORMU [11]; dosage 20 g/ha): 100%
- pest or weed control at 80 g/ha (HORMU [11]; dosage 80 g/ha): 100%
- pest or weed control at 80 g/ha (SETVI [12]; dosage 80 g/ha): 100%
- pest or weed control at 320 g/ha (SETVI [12]; dosage 320 g/ha): 100%
- pest or weed control at 20 g/ha (MATIN; dosage 20 g/ha): 100%
- pest or weed control at 80 g/ha (MATIN; dosage 80 g/ha): 100%
- pest or weed control at 320 g/ha (MATIN; dosage 320 g/ha): 100%
- pest or weed control at 20 g/ha (STEME [13]; dosage 20 g/ha): 100%
- pest or weed control at 80 g/ha (STEME [13]; dosage 80 g/ha): 100%
- pest or weed control at 320 g/ha (STEME [13]; dosage 320 g/ha): 100%
- pest or weed control at 80 g/ha (AVEFA; 80 g/ha): 100%
- pest or weed control at 20 g/ha (AVEFA; [20]): 100%
- pest or weed control at 320 g/ha (AVEFA; [21]): 100%
- pest or weed control at 5 g/ha (SETVI [14]; dosage 5 g/ha): 100%
- pest or weed control at 20 g/ha (SETVI [14]; dosage 20 g/ha): 100%
- pest or weed control at 80 g/ha (SETVI [14]; dosage 80 g/ha): 100%
- pest or weed control at 80 g/ha (POLCO [15]; dosage 80 g/ha): 100%
- pest or weed control at 320 g/ha (POLCO [15]; dosage 320 g/ha): 100%
- pest or weed control at 5 g/ha (ABUTH [16]; dosage 5 g/ha): 100%
- pest or weed control at 20 g/ha (ABUTH [16]; dosage 20 g/ha): 100%
- pest or weed control at 80 g/ha (ABUTH [16]; dosage 80 g/ha): 100%
- pest or weed control at 5 g/ha (VERPE [17]; 5 g/ha): 80%
- pest or weed control at 20 g/ha (VERPE [17]; 20 g/ha): 80%
- pest or weed control at 80 g/ha (VERPE [17]; 80 g/ha): 100%
- pest or weed control at 80 g/ha (ALOMY; [19]): 100%
- pest or weed control at 20 g/ha (ALOMY; [20]): 90%
- pest or weed control at 320 g/ha (ALOMY; [21]): 100%
- pest or weed control at 20 g/ha (STEME [18]; 20 g/ha): 100%
- pest or weed control at 80 g/ha (STEME [18]; 80 g/ha): 100%
- pest or weed control at 5 g/ha (STEME [18]; dosage 5 g/ha): 100%

— patent publication US12655116B2, “Substituted isophthalic acid diamides” (Bayer Aktiengesellschaft, priority 2020, dated 2026)
